Test results as given in the supplement of paper PMC10307832.

Tests used:
Assay in all cases: relative viability (nuclei count vs DMSO), 5 days (fraction); higher = more cells survive
NCI-H1793 = test system: NCI-H1793
Outline: (§1)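 Medians of duplicate plates are given as relative viability. That measure is the nuclei count in treated wells divided by the count in vehicle wells. Counts were taken on 4× images of lung cancer cell lines in 1536-well plates, 5 days after pin-tool dosing the day after seeding with one drug alone or a fixed anchor-drug dose plus five library-drug doses (not always all listed) in √10 steps.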

A-427 = test system: A-427
Outline: as §1

LXF-289 = test system: LXF-289
Outline: as §1

EMC-BAC-2 = test system: EMC-BAC-2
Outline: as §1

NCI-H2009 = test system: NCI-H2009
Outline: as §1

SK-MES-1 = test system: SK-MES-1
Outline: as §1

NCI-H1944 = test system: NCI-H1944
Outline: as §1

ABC-1 = test system: ABC-1
Outline: as §1

NCI-H1993 = test system: NCI-H1993
Outline: as §1

PC-3 [JPC-3] = test system: PC-3 [JPC-3]
Outline: as §1

NCI-H596 = test system: NCI-H596
Outline: as §1

NCI-H1792 = test system: NCI-H1792
Outline: as §1

NCI-H3122 = test system: NCI-H3122
Outline: as §1

HARA = test system: HARA
Outline: as §1

SW 1573 = test system: SW 1573
Outline: as §1

SK-LU-1 = test system: SK-LU-1
Outline: as §1

HOP-62 = test system: HOP-62
Outline: as §1

NCI-H2228 = test system: NCI-H2228
Outline: as §1

COR-L23 = test system: COR-L23
Outline: as §1

NCI-H727 = test system: NCI-H727
Outline: as §1

NCI-H2170 = test system: NCI-H2170
Outline: as §1

LK-2 = test system: LK-2
Outline: as §1

## CC1(C)CCC(c2ccc(Cl)cc2)=C(CN2CCN(c3ccc(C(=O)NS(=O)(=O)c4ccc(N[C@H](CCN5CCOCC5)CSc5ccccc5)c(S(=O)(=O)C(F)(F)F)c4)cc3)CC2)C1 [Navitoclax] + Cc1nc(NC(=O)N2CCC[C@H]2C(N)=O)sc1-c1ccnc(C(C)(C)C(F)(F)F)c1 [Alpelisib] (partner 2 µM)
NCI-H1793; first compound 0.005 µM
  relative viability: 0.772
NCI-H1793; first compound 0.01581 µM
  relative viability: 0.799
NCI-H1793; first compound 0.05 µM
  relative viability: 0.574
NCI-H1793; first compound 0.1581 µM
  relative viability: 0.858
NCI-H1793; first compound 0.5 µM
  relative viability: 0.609
A-427; first compound 0.005 µM
  relative viability: 1.01
A-427; first compound 0.01581 µM
  relative viability: 1.06
A-427; first compound 0.05 µM
  relative viability: 0.908
A-427; first compound 0.1581 µM
  relative viability: 1.14
A-427; first compound 0.5 µM
  relative viability: 1.04
LXF-289; first compound 0.005 µM
  relative viability: 1.02
LXF-289; first compound 0.01581 µM
  relative viability: 1.03
LXF-289; first compound 0.05 µM
  relative viability: 0.921
LXF-289; first compound 0.1581 µM
  relative viability: 1.02
LXF-289; first compound 0.5 µM
  relative viability: 1.08
EMC-BAC-2; first compound 0.005 µM
  relative viability: 0.733
EMC-BAC-2; first compound 0.01581 µM
  relative viability: 0.764
EMC-BAC-2; first compound 0.05 µM
  relative viability: 0.745
EMC-BAC-2; first compound 0.1581 µM
  relative viability: 0.69
EMC-BAC-2; first compound 0.5 µM
  relative viability: 0.759
NCI-H2009; first compound 0.005 µM
  relative viability: 1.08
NCI-H2009; first compound 0.01581 µM
  relative viability: 1.16
NCI-H2009; first compound 0.05 µM
  relative viability: 1.15
NCI-H2009; first compound 0.1581 µM
  relative viability: 1.2
NCI-H2009; first compound 0.5 µM
  relative viability: 1.21
SK-MES-1; first compound 0.005 µM
  relative viability: 0.761
SK-MES-1; first compound 0.01581 µM
  relative viability: 1.01
SK-MES-1; first compound 0.05 µM
  relative viability: 0.922
SK-MES-1; first compound 0.1581 µM
  relative viability: 0.827
SK-MES-1; first compound 0.5 µM
  relative viability: 1.04
NCI-H1944; first compound 0.005 µM
  relative viability: 0.832
NCI-H1944; first compound 0.01581 µM
  relative viability: 0.863
NCI-H1944; first compound 0.05 µM
  relative viability: 0.786
NCI-H1944; first compound 0.1581 µM
  relative viability: 0.836
NCI-H1944; first compound 0.5 µM
  relative viability: 0.82
ABC-1; first compound 0.005 µM
  relative viability: 1.14
ABC-1; first compound 0.01581 µM
  relative viability: 1.39
ABC-1; first compound 0.05 µM
  relative viability: 1.04
ABC-1; first compound 0.1581 µM
  relative viability: 0.899
ABC-1; first compound 0.5 µM
  relative viability: 1.01
NCI-H1993; first compound 0.005 µM
  relative viability: 0.658
NCI-H1993; first compound 0.01581 µM
  relative viability: 0.732
NCI-H1993; first compound 0.05 µM
  relative viability: 0.682
NCI-H1993; first compound 0.1581 µM
  relative viability: 0.676
NCI-H1993; first compound 0.5 µM
  relative viability: 0.749
PC-3 [JPC-3]; first compound 0.005 µM
  relative viability: 1.04
PC-3 [JPC-3]; first compound 0.01581 µM
  relative viability: 1.02
PC-3 [JPC-3]; first compound 0.05 µM
  relative viability: 1.02
PC-3 [JPC-3]; first compound 0.1581 µM
  relative viability: 1.03
PC-3 [JPC-3]; first compound 0.5 µM
  relative viability: 1.06
NCI-H596; first compound 0.005 µM
  relative viability: 0.515
NCI-H596; first compound 0.01581 µM
  relative viability: 0.481
NCI-H596; first compound 0.05 µM
  relative viability: 0.399
NCI-H596; first compound 0.1581 µM
  relative viability: 0.57
NCI-H596; first compound 0.5 µM
  relative viability: 0.408
NCI-H1792; first compound 0.005 µM
  relative viability: 0.735
NCI-H1792; first compound 0.01581 µM
  relative viability: 0.878
NCI-H1792; first compound 0.05 µM
  relative viability: 0.534
NCI-H1792; first compound 0.1581 µM
  relative viability: 0.657
NCI-H1792; first compound 0.5 µM
  relative viability: 0.692
NCI-H3122; first compound 0.005 µM
  relative viability: 0.686
NCI-H3122; first compound 0.01581 µM
  relative viability: 0.8
NCI-H3122; first compound 0.05 µM
  relative viability: 0.726
NCI-H3122; first compound 0.1581 µM
  relative viability: 0.901
NCI-H3122; first compound 0.5 µM
  relative viability: 0.766
HARA; first compound 0.005 µM
  relative viability: 0.657
HARA; first compound 0.01581 µM
  relative viability: 1.05
HARA; first compound 0.05 µM
  relative viability: 0.622
HARA; first compound 0.1581 µM
  relative viability: 0.881
HARA; first compound 0.5 µM
  relative viability: 0.898
SW 1573; first compound 0.005 µM
  relative viability: 0.635
SW 1573; first compound 0.01581 µM
  relative viability: 0.836
SW 1573; first compound 0.05 µM
  relative viability: 0.917
SW 1573; first compound 0.1581 µM
  relative viability: 0.796
SW 1573; first compound 0.5 µM
  relative viability: 0.718
SK-LU-1; first compound 0.005 µM
  relative viability: 0.979
SK-LU-1; first compound 0.01581 µM
  relative viability: 1.12
SK-LU-1; first compound 0.05 µM
  relative viability: 1.23
SK-LU-1; first compound 0.1581 µM
  relative viability: 0.906
SK-LU-1; first compound 0.5 µM
  relative viability: 0.867
HOP-62; first compound 0.005 µM
  relative viability: 0.781
HOP-62; first compound 0.01581 µM
  relative viability: 1.06
HOP-62; first compound 0.05 µM
  relative viability: 0.869
HOP-62; first compound 0.1581 µM
  relative viability: 0.871
HOP-62; first compound 0.5 µM
  relative viability: 0.785
NCI-H2228; first compound 0.005 µM
  relative viability: 0.745
NCI-H2228; first compound 0.01581 µM
  relative viability: 0.725
NCI-H2228; first compound 0.05 µM
  relative viability: 0.602
NCI-H2228; first compound 0.1581 µM
  relative viability: 0.688
NCI-H2228; first compound 0.5 µM
  relative viability: 0.819
COR-L23; first compound 0.005 µM
  relative viability: 0.67
COR-L23; first compound 0.01581 µM
  relative viability: 0.807
COR-L23; first compound 0.05 µM
  relative viability: 0.697
COR-L23; first compound 0.1581 µM
  relative viability: 0.7
COR-L23; first compound 0.5 µM
  relative viability: 0.855
NCI-H727; first compound 0.005 µM
  relative viability: 0.5
NCI-H727; first compound 0.01581 µM
  relative viability: 0.619
NCI-H727; first compound 0.1581 µM
  relative viability: 0.526
NCI-H727; first compound 0.5 µM
  relative viability: 0.434
NCI-H2170; first compound 0.005 µM
  relative viability: 0.785
NCI-H2170; first compound 0.01581 µM
  relative viability: 0.872
NCI-H2170; first compound 0.05 µM
  relative viability: 0.927
NCI-H2170; first compound 0.1581 µM
  relative viability: 0.8
NCI-H2170; first compound 0.5 µM
  relative viability: 0.583
LK-2; first compound 0.005 µM
  relative viability: 0.919
LK-2; first compound 0.01581 µM
  relative viability: 1.29
LK-2; first compound 0.05 µM
  relative viability: 1.12
LK-2; first compound 0.1581 µM
  relative viability: 0.997
LK-2; first compound 0.5 µM
  relative viability: 1.08
